# From patent publication US7790761B2, “Blockade of voltage dependent sodium channels” (University College London, priority 2000, dated 2010)
# Where two headings read alike, the source gives them in different places.
# What was measured:
# optic nerve axons [1] = test: Optic nerve pathology: axonal damage caused by oxygen- and glucose-deprivation (OGD); type: cell-based, rat; settings: for Index of Axonopathy: mean ± S.E.M.; for Protection against axonal damage caused by OGD (in words): OGD-exposed rat optic nerve
# Protocol: Optic nerves were excised from adult Wistar rats (weighing 240-280 g) after decapitation. They comprised lengths of nerve (each about 9 mm long) running from immediately behind the eyeball to just in front of the optic chiasm. The nerves were incubated in Erlenmeyer flasks (50 ml capacity) containing 20 ml of an artificial CSF (aCSF) solution composed of (mM): NaCl (120) KCl (2.0), CaCl2 (2.0), NaHCO3 (26), KH2PO4 (1.18), MgSO4 (1.19) and glucose (11), continuously gassed with 95% O2/5% CO2. The flasks were held in a shaking water bath at 37° C.
# (§1) After 1-2 h preincubation in aCSF, test nerves received the NO donor, PAPA/NO (1 mM) for 2 h or OGD was imposed by transferring the nerves for 1 h into aCSF lacking glucose and gassed with 5% CO2 in N2. Afterwards, the nerves were allowed a 90 min recovery period in aCSF. Putative protectant drugs were present from 15 min before until 15 min after the NO exposure or OGD.
# The nerves were then fixed for 2 h in a mixture of 4% paraformaldehyde and 2.5% glutaraldehyde in 0.1 M phosphate buffer (pH 7.4), and post-fixed with 1% osmium tetroxide for 1 h. After dehydration the tissues were embedded in Durcupan resin. Semithin (1 μm) sections were stained with either toluidine blue.
# To quantify the extent of axonal pathology under the light microscope, the degree of distension of the axon profiles was measured using an image analysis system as described previously (Garthwaite et al., (1999), Neuroscience, 94, 1219-1230). The data are expressed as mean number of axons greater than 2.5 μm in diameter per […] (±S.E.M.) in fields from 5-39 nerves.
# optic nerve axons [2] = test: Optic nerve pathology: axonal damage caused by the NO donor PAPA/NO; type: cell-based, rat
# Protocol: Optic nerves were excised from adult Wistar rats (weighing 240-280 g) after decapitation. They comprised lengths of nerve (each about 9 mm long) running from immediately behind the eyeball to just in front of the optic chiasm. […] The flasks were held in a shaking water bath at 37° C.
# as §1
# After dehydration the tissues were embedded in Durcupan resin. Semithin (1 μm) sections were stained with either toluidine blue.
# The data are expressed as mean number of axons greater than 2.5 μm in diameter per […] (±S.E.M.) in fields from 5-39 nerves.
# sodium channels = test: [14C]-labelled guanidine flux through sodium channels; type: biochemical, rat; settings: inhibition of flux of [14C]-labelled guanidine through sodium channels
# [3] = PAPA/NO-exposed rat optic nerve
structure (smiles),measurement,setting,value
COC(=O)c1nn(Cc2ccccc2)c2ccccc12,melting point,,72 to 73 °C
"CN1CCN(c2ncc(-c3cc(Cl)cc(Cl)c3Cl)c(N)n2)CC1 [BW619C89, reference compound]",Index of Axonopathy,optic nerve axons [1]; OGD 1 h + drug at 100 μM,53 ± 5 axons greater than 2.5 μm in diameter per 10^4 m^2
same,Protection against axonal damage caused by OGD (in words),optic nerve axons [1],able to protect to an equivalent degree
same,Index of Axonopathy,"optic nerve axons [2]; PAPA/NO (1 mM) + drug at 100 μM, mean ± S.E.M.",26 ± 3 axons greater than 2.5 μm in diameter per 10^4 m^2
same,Effect on axonal pathology caused by NO (in words),optic nerve axons [2]; [3],eliminated
"OCc1ccc(-c2nn(Cc3ccccc3)c3ccccc23)o1 [Example 4, 1-Benzyl-3-(5-hydroxymethyl-2-furyl)-1H-indazole]",IC50,sodium channels,17 µM
same,Index of Axonopathy,"optic nerve axons [1]; OGD 1 h + drug, concentration not given",72 ± 15 axons greater than 2.5 μm in diameter per 10^4 m^2
same,Protection against axonal damage caused by OGD (in words),optic nerve axons [1],able to protect to an equivalent degree
same,Index of Axonopathy,"optic nerve axons [2]; PAPA/NO (1 mM) + drug at 30 μM, mean ± S.E.M.",24 ± 4 axons greater than 2.5 μm in diameter per 10^4 m^2
same,Effect on axonal pathology caused by NO (in words),optic nerve axons [2]; [3],as effective as both these other agents
"O=C(O)c1n[nH]c2ccccc12 [Example 48, Indazole-3-carboxylic acid]",melting point,,261 to 263 °C (dec.)
"CN(C)Cc1noc(-c2nn(Cc3ccccc3)c3ccccc23)n1 [Example 52, 1-Benzyl-3-[3-(N,N-dimethylaminomethyl)-1,2,4oxadiazol-5-yl]indazole]",IC50,sodium channels,33.9 µM
same,melting point,,93 to 95 °C
CCCN(CCCN)/[N+]([O-])=N/O [PAPA/NO],Index of Axonopathy,"optic nerve axons [2]; PAPA/NO (1 mM) for 2 h alone, no protectant, mean ± S.E.M.",226 ± 22 axons greater than 2.5 μm in diameter per 10^4 m^2
NC1=N[C@H](O)[C@H]2[C@H]3O[C@]4(O)O[C@@H]([C@@H](O)[C@@]2(N1)[C@@H]4O)[C@]3(O)CO [Tetrodotoxin],Effect on axonal pathology caused by NO (in words),optic nerve axons [2],eliminated
same,Index of Axonopathy,optic nerve axons [2],17 ± 4 axons greater than 2.5 μm in diameter per 10^4 m^2
